Entries after “also recorded” stand apart in the source; their conditions may differ.
Assays:
NIH 3T3 cells = test: LPS-induced NIH 3T3 cells: NF-κB activity, IL-6, cell death; format: cell-based; settings: LPS+peptide vs LPS, 0, 1, 3 and 6 hours
Protocol: FIG. 2A is a graph showing the effect of ANXA1sp on NF-κB activity over time on NIH 3T3 cells activated with LPS alone and LPS+peptide. FIG. 2B is a graph showing the effect of ANXA1sp on interleukin-6 (IL-6) production over time by NIH 3T3 cells activated with LPS alone and LPS+peptide.
The ANXA1sp was next tested in LPS-induced NIH 3T3 cells to determine if NF-κB activity was inhibited. NIH 3T3 cells were exposed to LPS or LPS+ANXA1sp (LPS+Peptide) for 0, 1, 3 and 6 hours. Cell lysates were obtained and levels of NF-κB activity and IL-6 were measured by ELISA. Cell death was also measured by Trypan blue exclusion.

male SD rats = test: Rat CPB/CA model of myocardial I/R injury (normo- and hyperglycemic); format: in vivo; settings: for NF-κB activity / IL-6 / TNF-α / Caspase-3 / MPO / Apoptosis / HFABP / cTnI: 3 mg/kg total; for NF-κB activity: myocardial DNA binding activity; for NF-κB activity / IL-6 / TNF-α / Caspase-3 / MPO / Apoptosis / HFABP: 24 h; for IL-6 / TNF-α: myocardial tissue; for Caspase-3 / MPO / Apoptosis: myocardium; for Apoptosis: TUNEL; for HFABP / cTnI: plasma; for cTnI: 24 h post-reperfusion
Protocol: Next, studies were carried out to determine the effectiveness of ANXA1sp on myocardial protection in vivo using a clinically-relevant rodent experimental model of surgical global myocardial ischemia/reperfusion injury. […] Rats were exposed to CPB for 15 minutes before ischemic/reperfusion injury was initiated (i.e., cardioplegic arrest was induced) and maintained for 45 minutes, followed by another 15 minutes of CPB. Animals were weaned from cardiopulmonary bypass and allowed to recover for 24 hours, at which point blood and left ventricular myocardial tissue were harvested for analysis. FIG. 5B is a graph showing the blood glucose levels in rats before and after ischemia. Acute hyperglycemia was induced using dextrose 25% (5 gm/kg) administered preoperatively 0.75 gm intraperitoneally, intraoperatively 0.25 gm in CPB prime and 0.5 gm/hr intravenously, and postoperatively 1 hour after weaning from CPB (intraperitoneally). Perioperative blood glucose levels were maintained at >300 mg/dl. Cardioplegic arrest was induced with cold (4:1) blood cardioplegia. Animals in the AXNA1sp treated group received a total of 3 mg/kg ANXA1sp in 3 equal doses administered before (intraperitoneally), during (intracoronary, mixed with cardioplegia solution), and after CPB (intraperitoneally), respectively. Control animals underwent an identical surgical procedure with vehicle instead of ANXA1sp.
In vivo study: with IACUC approval, male SD rats were randomly assigned to 4 groups in a 2×2 design (n=5/group): normo- and hyperglycemic (20 mM) cardioplegic arrest (CA), each treated with ANXA1sp or vehicle, respectively. All animals underwent 75 min of mild hypothermic CPB (33° C.) with 45 min of CA using blood cardioplegia. Treatment groups received ANXA1sp (Ac-QAW, GenScript, 3 mg/kg total) before (ip), during (with cardioplegia), and after CPB (ip) in equal doses, whereas CA control animals received saline. No animals received insulin. At 24 h post-reperfusion the following efficacy end-points were assessed by investigators blinded to the experimental group: 1) plasma myonecrosis biomarkers—cTnI and HFABP (rat specific ELISA, LifeDiagnostics); 2) myocardial apoptosis—cleaved caspase-3 (immunostaining and Western blot) and TUNEL assays; 3) myocardial inflammation—NF-kB DNA binding activity (ELISA, Panomics) and tissue levels of TNF-α and IL-6 (ELISA, ThermoScientific); and 4) myocardial neutrophil transmigration—myeloperoxidase (MPO) activity (ELISA, ThermoScientific).

[1] = system: adult rat ventricular cardiomyocytes (ARVC); test: ARVC simulated I/R (oxygen-glucose deprivation/reoxygenation); format: cell-based; settings: for cTnI: 30 μM ANXA1sp, 2 h OGD + 24 h reoxygenation, supernatant; for HFABP / TNFα / Apoptosis / Cell Death: 30 μM, OGD/reoxygenation; for Apoptosis: ELISA; for Cell Death: trypan blue
Protocol: FIG. 4A. Cells were exposed to normal glucose (NG) (a, e), high glucose (HG) (b, f), HG+ANXA1sp (c, g) and HG+Ac2-26 (d, h), respectively, for 24 hours. Cells (e, f, g, h) were washed with deoxygenated glucose-free DMEM medium in an anaerobic chamber that contained a gas mixture of 5% CO2, 10% H2, and 85% N2 and incubated for 2 hours. After oxygen/glucose deprivation (OGD), ARVC cells were cultured in DMEM medium under normoxic conditions in a 5% CO2 incubator for 24 hours. Cells (a, b, c, d) without OGD were used as a control. Cell death was determined by trypan blue staining. FIG. 4B is a graph of the results obtained in FIG. 4A. Specifically, cells were counted in a total of eight random fields in triplicate wells. Values presented are means±SD; n=8.
Cardiomyocytes isolated from adult rat in both normal and hyperglycemic culture media were exposed directly to ANXA1sp. […] The cardioprotective effects of ANXA1sp was further examined in hyperglycemic exacerbation of myocardial injury due to simulated ischemia/reperfusion in vitro. Adult rat ventricular cardiomyocytes (ARVCs) were treated with/without either ANXA1sp or Ac2-26 in both normo- and hyperglycemic culture media for 24 hours. Cells were washed with deoxygenated glucose-free DMEM medium in an anaerobic chamber that filtrated a gas mixture of 5% CO2-10% H2-85% N2 and incubated for 2 hours. After oxygen/glucose deprivation (OGD), cells were cultured under normoxic conditions in a 5% CO2 incubator for 24 hours. Cells without OGD were used as a positive control. Cell death was determined by trypan blue exclusive staining. Cells were counted in triplicate wells and in eight random fields in each well.
In vitro study: ARVCs from male Sprague-Dawley (SD) rats were incubated in normal or high glucose (25 mM), with and without 30 μM ANXA1sp (Ac-QAW), or with a scrambled peptide (Ac-QWA), respectively for 24 h. Cells were subjected to 2 h oxygen-glucose deprivation (OGD), followed by 24 h reoxygenation in either normo- or hyperglycemic conditions. Cell death was determined histologically (trypan blue exclusion) and biochemically (supernatant levels of cTnI and HFABP, ELISA). Apoptosis was quantified using ELISA (Roche).

**Q.** Ac-Gln-Ala-Trp [ANXA1sp] was tested. Which “apoptosis (cell death, Trypan blue exclusion)” value (NIH 3T3 cells) did it give?
**A.** inhibited

**Q.** And the IL-6 (NIH 3T3 cells; ELISA)?
**A.** inhibited

**Q.** And the NF-κB activity (NIH 3T3 cells; ELISA of cell lysates)?
**A.** inhibited

**Q.** What about the NF-κB activity (male SD rats; CAHG_SP: hyperglycemic) of the same substance?
**A.** 1.5 ± 0.5 A.U.

**Q.** What about the IL-6 (male SD rats; CAHG_SP: hyperglycemic) of the same substance?
**A.** 107.3 ± 15.5 ng/mg

**Q.** And the TNF-α (male SD rats; CAHG_SP: hyperglycemic)?
**A.** 105.6 ± 13.3 ng/mg

**Q.** And the Caspase-3 (male SD rats; CAHG_SP: hyperglycemic)?
**A.** 5.9 ± 1.4 A.U.

**Q.** What about the MPO (male SD rats; CAHG_SP: hyperglycemic) of the same substance?
**A.** 467.2 ± 72.4 ng/mg

**Q.** What about the Apoptosis (male SD rats; CAHG_SP: hyperglycemic) of the same substance?
**A.** 9.5 ± 1.2 %

**Q.** And the HFABP (male SD rats; CAHG_SP: hyperglycemic)?
**A.** 12.4 ± 2.6 ng/mL

**Q.** And the cTnI (male SD rats; CAHG_SP: hyperglycemic)?
**A.** 2.1 ± 0.5 ng/mL

**Q.** And the NF-κB activity (male SD rats; CA_SP: normoglycemic)?
**A.** 0.8 ± 0.04 A.U.

**Q.** And the IL-6 (male SD rats; CA_SP: normoglycemic)?
**A.** 38.2 ± 8.1 ng/mg

**Q.** And the TNF-α (male SD rats; CA_SP: normoglycemic)?
**A.** 28.8 ± 6.7 ng/mg

**Q.** What about the Caspase-3 (male SD rats; CA_SP: normoglycemic) of the same substance?
**A.** 1.9 ± 1.5 A.U.

**Q.** What about the MPO (male SD rats; CA_SP: normoglycemic) of the same substance?
**A.** 104.8 ± 6.6 ng/mg

**Q.** And the Apoptosis (male SD rats; CA_SP: normoglycemic)?
**A.** 2.4 ± 1.1 %

**Q.** And the HFABP (male SD rats; CA_SP: normoglycemic)?
**A.** 1.0 ± 0.3 ng/mL

**Q.** And the cTnI (male SD rats; CA_SP: normoglycemic)?
**A.** 1.0 ± 0.7 ng/mL

**Q.** And the “myocardial apoptosis (TUNEL)” value (male SD rats; Example 4: acute hyperglycemia, 3 mg/kg, FIG. 7B, 3 mg/kg)?
**A.** attenuated; also recorded: significantly decreased

**Q.** And the “myocardial MPO” value (male SD rats; Example 4: acute hyperglycemia, 3 mg/kg, FIG. 8, 3 mg/kg)?
**A.** attenuated; also recorded: significantly decreased

**Q.** And the “myocardial NF-κB DNA binding activity” value (male SD rats; Example 4: acute hyperglycemia, 3 mg/kg, FIG. 9, 3 mg/kg)?
**A.** attenuated; also recorded: significantly decreased

**Q.** What about the “myocardial TNF-α” value (male SD rats; Example 4: acute hyperglycemia, 3 mg/kg, FIG. 10A, 3 mg/kg) of the same substance?
**A.** attenuated; also recorded: significantly decreased

**Q.** What about the “myocardial IL-6” value (male SD rats; Example 4: acute hyperglycemia, 3 mg/kg, FIG. 10B, 3 mg/kg) of the same substance?
**A.** attenuated; also recorded: significantly decreased

**Q.** And the “myocardial caspase-3 activity” value (male SD rats; Example 4: acute hyperglycemia, 3 mg/kg, Western blot, FIG. 7A, 3 mg/kg)?
**A.** attenuated; also recorded: significantly decreased

**Q.** What about the “myonecrosis biomarker HFABP” value (male SD rats; Example 4: acute hyperglycemia, 3 mg/kg, vs CAHG, FIG. 6B, 3 mg/kg) of the same substance?
**A.** attenuated; also recorded: significantly decreased

**Q.** And the “hyperglycemic exacerbation of perioperative myocardial injury” value (male SD rats; Example 4: cardioplegic arrest and acute hyperglycemia, 3 mg/kg)?
**A.** attenuated

**Q.** And the “myonecrosis biomarker cTnI” value (male SD rats; Example 4: cardioplegic arrest and acute hyperglycemia, 3 mg/kg, vs CAHG, FIG. 6A, 3 mg/kg)?
**A.** attenuated; also recorded: significantly decreased

**Q.** And the “in vivo interaction between ANXA1 and NF-κB p65 subunit” value (male SD rats; co-immunoprecipitation and confocal co-localization in cardiomyocytes, FIG. 11)?
**A.** significantly induces; also recorded: strongly induced

**Q.** What about the “cardiomyocyte cell death (trypan blue)” value ([1]; 24 h pretreatment, 2 h OGD, 24 h normoxia, Example 3) of the same substance?
**A.** significantly decreased cardiomyocyte cell death

**Q.** What about the cTnI ([1]; HG_SP: high glucose (25 mM)) of the same substance?
**A.** 7.8 ± 0.6 ng/mL

**Q.** What about the HFABP ([1]; HG_SP: high glucose (25 mM)) of the same substance?
**A.** 2.0 ± 0.4 ng/mL

**Q.** And the TNFα ([1]; HG_SP: high glucose (25 mM))?
**A.** 1.2 ± 0.1 ng/mg protein

**Q.** And the Apoptosis ([1]; HG_SP: high glucose (25 mM))?
**A.** 0.7 ± 0.2 A.U.

**Q.** What about the “Cell Death” value ([1]; HG_SP: high glucose (25 mM)) of the same substance?
**A.** 40.5 ± 11.1 %

**Q.** And the cTnI ([1]; NG_SP: normal glucose)?
**A.** 5.7 ± 0.4 ng/mL

**Q.** And the HFABP ([1]; NG_SP: normal glucose)?
**A.** 2.4 ± 1.4 ng/mL

**Q.** What about the TNFα ([1]; NG_SP: normal glucose) of the same substance?
**A.** 0.84 ± 0.1 ng/mg protein

**Q.** And the Apoptosis ([1]; NG_SP: normal glucose)?
**A.** 0.7 ± 0.2 A.U.

**Q.** What about the “Cell Death” value ([1]; NG_SP: normal glucose) of the same substance?
**A.** 38.6 ± 5.9 %

**Q.** What about the “cardioprotective efficacy compared with Ac2-26” value ([1]; OGD, high glucose, Example 3, FIG. 4) of the same substance?
**A.** stronger cardioprotective efficacy than Ac2-26

From US8940697B2, “Compositions and methods for the treatment of myocardial ischemia/reperfusion injury with Annexin A1 short peptide” (Duke University, priority 2009, dated 2015)
